We go through three compounds from patent US6657086B2, “C2-substituted indan-1-ols and their derivatives, processes for their preparation and their use as pharmaceuticals” (Aventis Pharma Deutschland GmbH, priority 2001, dated 2003).

Broadly, the melting point is the temperature, or range, at which the solid turns liquid.

The subject of series [1] is female NMRI mice. Kind of series: Anorectic action: cumulative evaporated milk consumption after 24 h feed removal. In kind it is in vivo. As to conditions: compared with control animals. The procedure:
The activity of the compounds was assayed as follows:
The anorectic action was tested on female NMRI mice. After removal of feed for 24 hours, the preparation to be tested was administered intraperitoneally (ip) or by gavage (po). The animals were housed singly and, with free access to drinking water, they were offered evaporated milk 30 minutes after administration of the preparation. The consumption of evaporated milk was determined and the general behavior of the animals was monitored every half an hour for 7 hours. The measured milk consumption was compared to that of vehicle-treated control animals.

In the case of `CS(=O)(=O)C1Cc2cc(Cl)ccc2C1O` (stereo not shown) [Example 1, 5-Chloro-2-methylsulfonylindan-1-ol], the melting point was 163 °C. In addition, the “Reduction in cumulative milk consumption as % of the control” value in series [1] (dose 20 mg/kg) stood at 50%.
As to `CCS(=O)(=O)C1Cc2cc(Cl)ccc2C1O` (stereo not shown) [Example 3, 5-Chloro-2-ethanesulfonylindan-1-ol], the melting point was 145 °C.
In the case of `CSC1Cc2cc(Cl)ccc2C1O` (stereo not shown) [Example 4, 5-Chloro-2-methylsulfanylindan-1-ol], the “Reduction in cumulative milk consumption as % of the control” value in series [1] (dose 50 mg/kg) came to 85%.
